Source: patent US9637453B2, “3-spirocyclic-6-hydroxamic acid tetralins as HDAC inhibitors” (Forma Therapeutics, Inc., priority 2015, dated 2017)
pIC50: −log10 of the molar value.

Columns and labels:
[1] = target: T1, Full length human recombinant HDAC11 (Homo sapiens, UniProt Q96DB2); test: In vitro histone deacetylase assay, enzymatic HDAC11 (electrophoretic mobility shift assay); assay type: biochemical; details: 10 nM HDAC11; 2 μM peptide substrate FAM-RHKK(tri-fluor-Ac)—NH2; 25° C.; 12 concentrations; read-out: HDAC11 Activity Range (IC50)
T1 construct: Full length human recombinant HDAC6 and HDAC11 proteins were expressed in baculoviral system
T1 sequence (Q96DB2 1-347): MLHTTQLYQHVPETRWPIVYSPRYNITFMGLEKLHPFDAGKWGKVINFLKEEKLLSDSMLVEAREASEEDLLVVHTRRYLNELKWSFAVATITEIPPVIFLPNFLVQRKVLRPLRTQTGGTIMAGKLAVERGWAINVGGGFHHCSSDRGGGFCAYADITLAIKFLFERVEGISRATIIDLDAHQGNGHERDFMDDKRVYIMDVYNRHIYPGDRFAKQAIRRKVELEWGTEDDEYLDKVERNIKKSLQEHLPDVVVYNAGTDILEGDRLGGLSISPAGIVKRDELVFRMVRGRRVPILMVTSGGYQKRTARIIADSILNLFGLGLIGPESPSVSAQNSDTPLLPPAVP
Experimental: (§1) The enzymatic HDAC6 and HDAC11 assays were performed using electrophoretic mobility shift assay. Full length human recombinant HDAC6 and HDAC11 proteins were expressed in baculoviral system and purified by affinity chromatography. The enzymatic reactions were assembled in 384 well plates in a total volume of 25 μL in a reaction buffer composing: 100 mM HEPES, pH 7.5, 25 mM KCl, 0.1% bovine serum albumin, 0.01% Triton X-100, 1% DMSO (from compounds) 2 μM of the fluorescently labeled peptide substrate and enzyme. The enzymes were added at a final concentration of 1 nM for HDAC6, and 10 nM for HDAC11. The peptide substrate FAM-RHKK(Ac)—NH2 was used for HDAC6, and FAM-RHKK(tri-fluor-Ac)—NH2 for HDAC11. The compounds were tested at 12 concentrations spaced by 3× dilution intervals. Negative control samples (0%-inhibition in the absence of inhibitor) and positive control samples (100%-inhibition) were assembled in replicates of four in each assay plate. The reactions were incubated at 25° C. and quenched by the addition of 45 μL of termination buffer (100 mM HEPES, pH 7.5, 0.01% Triton X-100, 0.05% SDS).
(§2) The terminated assay plates were analyzed on LabChip® 3000 microfluidic electrophoresis instrument (Perkin Elmer/Caliper Life Sciences). The fluorescence intensity of the electrophoretically separated de-acetylated product and substrate peptide was measured. Activity in each sample was determined as the product to sum ratio (PSR): P/(S+P), where P is the peak height of the product peptide and S is the peak height of the substrate peptide. Percent inhibition (Pinh) is determined using following equation:
(§3) Pinh=(PSR0%−PSRinh)/(PSR0%−PSR100%)*100, where PSRinh is the product sum ratio in the presence of inhibitor, PSR0% is the average product sum ration in the absence of inhibitor and PSR100% is the average product sum ratio in 100%-inhibition control samples. The IC50 values of inhibitors were determined by fitting the %-inhibition curves with 4 parameter dose-response model using XLfit 4 software.
(§4) As set forth in Table-26 and Table-27, below, IC5o values are defined as follows: IC50≦0.1 μM (+++); IC50>0.1 μM and ≦0.5 μM (++); IC50>0.5 μM (+).

[2] = target: T2, Full length human recombinant HDAC6 (Homo sapiens, UniProt Q9UBN7); test: In vitro histone deacetylase assay, enzymatic HDAC6 (electrophoretic mobility shift assay); assay type: biochemical; details: 1 nM HDAC6; 2 μM peptide substrate FAM-RHKK(Ac)—NH2; 25° C.; 12 concentrations; read-out: HDAC6 Activity Range (IC50)
T2 construct: Full length human recombinant HDAC6 and HDAC11 proteins were expressed in baculoviral system
T2 sequence (Q9UBN7 1-1215): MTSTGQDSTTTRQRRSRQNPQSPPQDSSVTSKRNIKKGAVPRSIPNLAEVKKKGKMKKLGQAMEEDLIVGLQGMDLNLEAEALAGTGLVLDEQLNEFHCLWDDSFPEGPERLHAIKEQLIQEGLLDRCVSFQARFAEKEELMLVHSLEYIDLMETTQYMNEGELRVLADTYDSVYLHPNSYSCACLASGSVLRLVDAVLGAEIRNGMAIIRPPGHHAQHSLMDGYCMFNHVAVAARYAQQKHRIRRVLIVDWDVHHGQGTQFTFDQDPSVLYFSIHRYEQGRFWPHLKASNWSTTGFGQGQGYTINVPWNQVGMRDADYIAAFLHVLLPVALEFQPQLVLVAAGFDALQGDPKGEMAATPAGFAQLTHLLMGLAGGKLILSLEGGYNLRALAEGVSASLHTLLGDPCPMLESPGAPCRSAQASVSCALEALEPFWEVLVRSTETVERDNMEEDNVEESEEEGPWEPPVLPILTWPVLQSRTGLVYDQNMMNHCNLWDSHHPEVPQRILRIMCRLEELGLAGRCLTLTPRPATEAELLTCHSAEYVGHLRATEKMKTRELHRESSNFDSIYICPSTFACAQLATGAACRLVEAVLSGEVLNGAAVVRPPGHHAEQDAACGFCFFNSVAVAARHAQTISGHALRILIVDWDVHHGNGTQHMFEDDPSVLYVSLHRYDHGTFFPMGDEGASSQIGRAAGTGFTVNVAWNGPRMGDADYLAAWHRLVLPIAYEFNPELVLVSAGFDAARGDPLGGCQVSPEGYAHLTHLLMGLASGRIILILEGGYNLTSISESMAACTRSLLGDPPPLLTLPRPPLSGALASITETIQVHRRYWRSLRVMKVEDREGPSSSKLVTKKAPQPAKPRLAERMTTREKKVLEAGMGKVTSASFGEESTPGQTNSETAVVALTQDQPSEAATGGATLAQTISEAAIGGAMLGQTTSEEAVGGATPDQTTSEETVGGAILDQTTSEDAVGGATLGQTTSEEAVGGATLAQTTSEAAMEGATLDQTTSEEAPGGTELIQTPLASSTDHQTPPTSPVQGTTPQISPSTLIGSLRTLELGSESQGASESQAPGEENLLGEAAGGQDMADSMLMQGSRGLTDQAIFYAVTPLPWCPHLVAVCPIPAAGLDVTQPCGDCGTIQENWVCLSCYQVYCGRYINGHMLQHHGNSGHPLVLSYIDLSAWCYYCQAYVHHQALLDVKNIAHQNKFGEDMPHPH
Experimental: as §1, §2, §3, §4

SMILES	pIC50 [1]	pIC50 [2]
O=C(NO)c1ccc2c(c1)C[C@@]1(CC2)CCN(Cc2ccc(Cl)cc2)C1=O [Compound I-37, (S)-1′-(4-chlorobenzyl)-N-hydroxy-2′-oxo-3,4-dihydro-1H-spiro[naphthalene-2,3′-pyrrolidine]-7-carboxamide]	≥ 7.00	≥ 7.00
O=C(NO)c1ccc2c(c1)C[C@]1(CC2)CCN(Cc2ccc(Cl)cc2)C1=O [Compound I-38, (R)-1′-(4-chlorobenzyl)-N-hydroxy-2′-oxo-3,4-dihydro-1H-spiro[naphthalene-2,3′-pyrrolidine]-7-carboxamide]	< 6.30	≥ 7.00
O=C(NO)c1ccc2c(c1)C[C@@]1(CC2)CCN(Cc2ccc(Cl)cn2)C1=O [Compound I-39, (S)-1′-((5-chloropyridin-2-yl)methyl)-N-hydroxy-2′-oxo-3,4-dihydro-1H-spiro[naphthalene-2,3′-pyrrolidine]-7-carboxamide]	< 6.30	≥ 7.00
O=C(NO)c1ccc2c(c1)C[C@]1(CC2)CCN(Cc2ccc(Cl)cn2)C1=O [Compound I-40, (R)-1′-((5-chloropyridin-2-yl)methyl)-N-hydroxy-2′-oxo-3,4-dihydro-1H-spiro[naphthalene-2,3′-pyrrolidine]-7-carboxamide]	≥ 7.00	≥ 7.00
O=C(NO)c1ccc2c(c1)C[C@@]1(CC2)CCN(Cc2ccc(F)cc2)C1=O [Compound I-41, (S)-1′-(4-fluorobenzyl)-N-hydroxy-2′-oxo-3,4-dihydro-1H-spiro[naphthalene-2,3′-pyrrolidine]-7-carboxamide]	< 6.30	≥ 7.00
O=C(NO)c1ccc2c(c1)C[C@]1(CC2)CCN(Cc2ccc(F)cc2)C1=O [Compound I-42, (R)-1′-(4-fluorobenzyl)-N-hydroxy-2′-oxo-3,4-dihydro-1H-spiro[naphthalene-2,3′-pyrrolidine]-7-carboxamide]	≥ 7.00	≥ 7.00
O=C(NO)c1ccc2c(c1)C[C@]1(CC2)CCN(c2ccccn2)C1=O [Compound I-43, (R)—N-hydroxy-2′-oxo-1′-(pyridin-2-yl)-3,4-dihydro-1H-spiro[naphthalene-2,3′-pyrrolidine]-7-carboxamide]	< 6.30	≥ 7.00
O=C(NO)c1ccc2c(c1)C[C@@]1(CC2)CCN(c2ccccn2)C1=O [Compound I-44, (S)—N-hydroxy-2′-oxo-1′-(pyridin-2-yl)-3,4-dihydro-1H-spiro[naphthalene-2,3′-pyrrolidine]-7-carboxamide]	< 6.30	≥ 7.00

Second part, the compound after the results:

pIC50 [1]	pIC50 [2]	SMILES
< 6.30	≥ 7.00	COCCn1c(CN2CC[C@@]3(CCc4ccc(C(=O)NO)cc4C3)C2=O)nc2ccccc21 [Compound I-45, (S)—N-hydroxy-1′-((1-(2-methoxyethyl)-1H-benzo[d]imidazol-2-yl)methyl)-2′-oxo-3,4-dihydro-1H-spiro[naphthalene-2,3′-pyrrolidine]-7-carboxamide]
6.30 to 7.00	≥ 7.00	COCCn1c(CN2CC[C@]3(CCc4ccc(C(=O)NO)cc4C3)C2=O)nc2ccccc21 [Compound I-46, (R)—N-hydroxy-1′-((1-(2-methoxyethyl)-1H-benzo[d]imidazol-2-yl)methyl)-2′-oxo-3,4-dihydro-1H-spiro[naphthalene-2,3′-pyrrolidine]-7-carboxamide]
< 6.30	≥ 7.00	O=C(NO)c1ccc2c(c1)C[C@]1(CCNC1=O)CC2 [Compound I-47, (S)—N-hydroxy-2′-oxo-3,4-dihydro-1H-spiro[naphthalene-2,3′-pyrrolidine]-7-carboxamide]
< 6.30	≥ 7.00	O=C(NO)c1ccc2c(c1)C[C@@]1(CCNC1=O)CC2 [Compound I-48, (R)—N-hydroxy-2′-oxo-3,4-dihydro-1H-spiro[naphthalene-2,3′-pyrrolidine]-7-carboxamide]
< 6.30	≥ 7.00	O=C(NO)c1ccc2c(c1)C[C@@]1(CC2)CCN(Cc2cnc(Cl)s2)C1=O [Compound I-49, (S)-1′-((2-chlorothiazol-5-yl)methyl)-N-hydroxy-2′-oxo-3,4-dihydro-1H-spiro[naphthalene-2,3′-pyrrolidine]-7-carboxamide]
< 6.30	≥ 7.00	O=C(NO)c1ccc2c(c1)C[C@@]1(CC2)CCN(Cc2cnc(O)s2)C1=O [Compound I-50, (S)—N-hydroxy-1′-((2-hydroxythiazol-5-yl)methyl)-2′-oxo-3,4-dihydro-1H-spiro[naphthalene-2,3′-pyrrolidine]-7-carboxamide]
≥ 7.00	≥ 7.00	CS(=O)(=O)c1ccc(CN2CC[C@]3(CCc4ccc(C(=O)NO)cc4C3)C2=O)cc1 [Compound I-51, (R)—N-hydroxy-1′-(4-(methylsulfonyl)benzyl)-2′-oxo-3,4-dihydro-1H-spiro[naphthalene-2,3′-pyrrolidine]-7-carboxamide]
< 6.30	≥ 7.00	CCCN1CC[C@@]2(CCc3ccc(C(=O)NO)cc3C2)C1=O [Compound I-52, (S)—N-hydroxy-2′-oxo-1′-propyl-3,4-dihydro-1H-spiro[naphthalene-2,3′-pyrrolidine]-7-carboxamide]
< 6.30	≥ 7.00	O=C(NO)c1ccc2c(c1)C[C@@]1(CC2)CCN(CC2CCC2)C1=O [Compound I-53, (S)-1′-(cyclobutylmethyl)-N-hydroxy-2′-oxo-3,4-dihydro-1H-spiro[naphthalene-2,3′-pyrrolidine]-7-carboxamide]
< 6.30	≥ 7.00	CC(C)CCN1CC[C@@]2(CCc3ccc(C(=O)NO)cc3C2)C1=O [Compound I-54, (S)—N-hydroxy-1′-isopentyl-2′-oxo-3,4-dihydro-1H-spiro[naphthalene-2,3′-pyrrolidine]-7-carboxamide]
< 6.30	≥ 7.00	CC#CCN1CC[C@@]2(CCc3ccc(C(=O)NO)cc3C2)C1=O [Compound I-55, (S)-1′-(but-2-yn-1-yl)-N-hydroxy-2′-oxo-3,4-dihydro-1H-spiro[naphthalene-2,3′-pyrrolidine]-7-carboxamide]
